Measured values reported in the NIST ThermoML archive (doi:10.1021/je060271a).
Numbers after ± are expanded uncertainties.

Conditions: 283.15 K, Liquid, Vibrating tube method

Measured: mass density

CCCCCC(=O)OCC(COC(=O)CCCCC)(COC(=O)CCCCC)COC(=O)CCCCC [pentaerythritol tetrahexanoate]
1004.4 ± 1.3 kg/m3: 263.5 kPa
1004.1 ± 1.2 kg/m3: 221.3 kPa | 223.2 kPa | 234.8 kPa | 245.6 kPa | 249.6 kPa | 298.6 kPa
1004.5 ± 1.2 kg/m3: 371.3 kPa
1004.3 ± 1.2 kg/m3: 219.9 kPa | 220.4 kPa | 221.1 kPa | 222.5 kPa | 224.1 kPa | 229.3 kPa | 232.1 kPa | 233.6 kPa | 236 kPa | 239.2 kPa | 239.9 kPa | 241.4 kPa | 242.8 kPa | 243.5 kPa | 243.9 kPa | 244.9 kPa | 246.3 kPa | 247 kPa | 247.7 kPa | 248.6 kPa | 250.5 kPa | 251.5 kPa | 251.9 kPa | 252.2 kPa | 253.4 kPa | 254.6 kPa | 255.2 kPa | 256 kPa | 258.6 kPa | 259.7 kPa | 260.5 kPa | 261.2 kPa | 266.4 kPa | 267 kPa | 269.1 kPa | 269.8 kPa | 270.8 kPa | 271.7 kPa | 272.5 kPa | 273.4 kPa | 276.4 kPa | 279.1 kPa | 282.6 kPa | 283.7 kPa | 285.7 kPa | 286.8 kPa | 290.8 kPa | 292.9 kPa | 295.1 kPa | 300.9 kPa | 301.9 kPa | 305.5 kPa | 309.4 kPa | 310.6 kPa | 311.5 kPa | 313 kPa | 315.6 kPa | 317.2 kPa | 320.5 kPa | 322.2 kPa | 324 kPa | 325.2 kPa | 326.4 kPa | 329.5 kPa | 333.3 kPa | 336.8 kPa | 338.4 kPa | 340.1 kPa | 341.9 kPa | 343.1 kPa | 344.6 kPa | 350.2 kPa | 355.6 kPa | 358.9 kPa | 367.6 kPa | 375.4 kPa | 377.5 kPa
1004.4 ± 1.2 kg/m3: 223.5 kPa | 230.8 kPa | 237.6 kPa | 242 kPa | 257.8 kPa | 277.6 kPa | 289.6 kPa | 294.1 kPa | 303.3 kPa | 304.3 kPa | 308 kPa | 335.1 kPa | 346.7 kPa | 348.1 kPa | 349.2 kPa | 351.1 kPa | 352.6 kPa | 354.7 kPa | 357.2 kPa | 369.3 kPa | 379.4 kPa | 381.5 kPa
1004.2 ± 1.2 kg/m3: 222 kPa | 227.9 kPa | 228.4 kPa | 228.8 kPa | 230 kPa | 231.2 kPa | 232.4 kPa | 233.4 kPa | 238.1 kPa | 238.8 kPa | 240.7 kPa | 249.9 kPa | 252.7 kPa | 256.9 kPa | 261.9 kPa | 262.8 kPa | 264.5 kPa | 265.2 kPa | 267.8 kPa | 274.4 kPa | 275.3 kPa | 278.1 kPa | 280.5 kPa | 281.2 kPa | 284.3 kPa | 287.6 kPa | 288.9 kPa | 291.8 kPa | 296.5 kPa | 297.4 kPa | 299.8 kPa | 306.8 kPa | 314.1 kPa | 318.8 kPa | 328.3 kPa | 331.8 kPa | 373.2 kPa
